Experimental findings from publication doi:10.1101/2023.09.04.556216v2 (bioRxiv, 2023) are described below.

Numbered stars: 1 amine (or outer) side, 2 acyl side, 3 side chain; on linkers, the order of the positions; unused ones are H or OH. Bridge positions count the residues as written; N and C are the ends. Peptide text beside a SMILES is read from it. Biphenyl(4,4'-CH2)2 = c1cc(-c2ccc(C[*:2])cc2)ccc1C[*:1]

In one data set the test system is PCa cells. The data set is described as follows: EdU labeling of cell proliferation. Format: cell-based. The note with it: 15 μM peptide, EdU labeling 2 h.
In a further data set the target is METTL3 (Homo sapiens, UniProt Q86U44). The data set is described as follows: Western blot of METTL3/METTL14 level and half-life. The note with it: for METTL3 half-life: PC3 cells pre-treated with cycloheximide (CHX), WB, 25 μM over 12 h; for METTL3 (and METTL14) protein levels by WB: PC3 cells, RSM3 25 μM, 12 h. It is filed as cell-based. On the technique in general: A western blot detects proteins with antibodies after separation by electrophoresis.
Chain of METTL3 (Q86U44 whole entry): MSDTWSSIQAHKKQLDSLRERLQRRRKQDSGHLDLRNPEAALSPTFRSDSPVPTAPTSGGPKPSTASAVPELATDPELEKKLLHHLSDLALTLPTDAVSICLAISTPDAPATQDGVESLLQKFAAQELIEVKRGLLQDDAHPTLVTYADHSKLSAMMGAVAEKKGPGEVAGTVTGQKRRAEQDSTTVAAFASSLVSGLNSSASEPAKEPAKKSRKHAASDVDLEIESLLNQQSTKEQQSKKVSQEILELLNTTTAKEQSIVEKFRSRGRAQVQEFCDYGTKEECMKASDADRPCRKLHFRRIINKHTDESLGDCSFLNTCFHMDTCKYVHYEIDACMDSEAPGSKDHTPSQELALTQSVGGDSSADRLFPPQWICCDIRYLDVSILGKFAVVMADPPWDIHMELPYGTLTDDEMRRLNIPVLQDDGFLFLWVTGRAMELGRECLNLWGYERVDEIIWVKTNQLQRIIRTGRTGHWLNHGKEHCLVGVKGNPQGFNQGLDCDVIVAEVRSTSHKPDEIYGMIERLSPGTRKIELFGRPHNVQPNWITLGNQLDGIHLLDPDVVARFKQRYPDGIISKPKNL

The subject of the next data set is PC3 xenograft tumor. Nature of the data set: PC3 xenograft tumor model. The note with it: for decrease of Ki67 in tumor (IHC) / increase of caspase-3 expression in tumor (IHC) / reduction in METTL3 expression in tumor (IHC) / reduction in m6A levels in tumor (IHC): 20 mg/kg peritumoral; for reduction in METTL3 expression in tumor (IHC) / reduction in m6A levels in tumor (IHC): compared to R9 and PBS groups; for average tumor mass relative to PBS group: 20 mg/kg, 10 days of treatment, Fig. S19c. It is filed as in vivo, BALB/c nude mice.

In a further data set the test system is PC3 or DU145. The data set is described as follows: Colony formation assay. Conditions: 15 μM peptide, PC3 or DU145, n=3. It is filed as cell-based.
In another data set the test system is m6A modification. Nature of the data set: m6A ELISA in cells. Format: cell-based. Conditions: PC3 or DU145 cells, Fig. 5f. Background: An ELISA detects its analyte on a solid surface through an enzyme-linked reagent.
For a further data set, the system named is DU145 cells. Nature of the data set: Cell viability. Format: cell-based. Further details: unit not given beside the values. The note with it: comparison experiment Fig. S17, unit not given.
Another data set deals with ASPC-1 xenograft tumors. Nature of the data set: ASPC-1 xenograft tumor model. It is filed as in vivo, mice. The note with it: 20 mg/kg, 10 days of treatment.
Data set [1] relates to PC3 cells. The data set is described as follows: Flow cytometry cell cycle analysis, PC3. It is filed as cell-based. Conditions: 15 µM, 12 h, PBS group ∼8.5%. Background: A flow cytometer gives signals particle by particle.
Data set [2] concerns PC3 cells. Nature of the data set: Cell viability. Further details: unit not given beside the values. Conditions: comparison experiment Fig. S17, unit not given. It is filed as cell-based.
The next data set addresses METTL3/METTL14 complex (Homo sapiens, UniProt Q86U44). The data set is described as follows: Co-Immunoprecipitation of METTL3 and METTL14. Format: cell-based. Conditions: Co-IP, quantitative analysis, Fig. S11.
Data set [3] has as its system PC3 cells. The data set is described as follows: Annexin V-FITC flow cytometry apoptosis, PC3. It is filed as cell-based. The note with it: 15 μM peptide.
A short description of data set [4]: Serum stability in 25% FBS. Format: in vitro ADME, bovine. The note with it: 25% FBS (serum:buffer 1:3), pH 7.4.
Another data set has as its system DU145. Nature of the data set: Annexin V-FITC flow cytometry apoptosis, DU145. Format: cell-based. Conditions: 15 μM peptide, PBS ∼5%.
The mark [5] stands for this setting: peri-tumoral injection 20 mg/kg every two days for two weeks.

Chain of METTL3/METTL14 complex (Q86U44 whole entry, one chain of several): as the sequence (Q86U44 whole entry) above

For `CSCC[C@H](NC(=O)[C@H](CS)NC(=O)[C@H](CCCNC(=N)N)NC(=O)[C@H](CCCNC(=N)N)NC(=O)[C@H](CCCNC(=N)N)NC(=O)[C@H](CCCNC(=N)N)NC(=O)[C@H](CCCNC(=N)N)NC(=O)[C@H](CCCNC(=N)N)NC(=O)[C@H](CCCNC(=N)N)NC(=O)[C@H](CCCNC(=N)N)NC(=O)[C@H](CCCNC(=N)N)NC(=O)[C@@H](N)CCCNC(=N)N)C(=O)N[C@@H](CCC(=O)O)C(=O)N[C@@H](CC(C)C)C(=O)NCC(=O)N[C@@H](CCCNC(=N)N)C(=O)N[C@@H](CCC(=O)O)C(=O)N[C@@H](CS)C(=O)N[C@@H](CC(C)C)C(=O)N[C@@H](CC(N)=O)C(=O)N[C@@H](CC(C)C)C(=O)N[C@@H](Cc1c[nH]c2ccccc12)C(N)=O` [RM3] (H-RRRRRRRRRRCMELGRECLNLW-NH2; N-terminus assumed), in the data set on PCa cells, the “EdU signal relative to PBS control group” value is on record as about 47.0%. For the same molecule, the METTL3 half-life result at METTL3 is on record as “dramatically reduced half-life”. In the data set with PC3 xenograft tumor, the “decrease of Ki67 in tumor (IHC)” value is recorded as about 65%, the “increase of caspase-3 expression in tumor (IHC)” value is reported as about 1.8 fold, the “reduction in METTL3 expression in tumor (IHC)” value is recorded as about 50% and the “reduction in m6A levels in tumor (IHC)” value is on record as about 50%. The “tumor growth compared to R9 or PBS control groups” value in the data set with PC3 xenograft tumor (setting [5]) was “significant suppression of tumor growth”. Moreover, the “fold reduction in colony formation” value in the data set on PC3 or DU145 was about 20 fold. Moreover, the “m6A modification level relative to R9 and PBS treatment groups” value in the data set on m6A modification was about 20%.
For orientation: share remaining means the share of the starting amount still present when the sample was taken. As to `CSCC[C@@H]1NC(=O)[C@@H](NC(=O)[C@H](CCCNC(=N)N)NC(=O)[C@H](CCCNC(=N)N)NC(=O)[C@H](CCCNC(=N)N)NC(=O)[C@H](CCCNC(=N)N)NC(=O)[C@H](CCCNC(=N)N)NC(=O)[C@H](CCCNC(=N)N)NC(=O)[C@H](CCCNC(=N)N)NC(=O)[C@H](CCCNC(=N)N)NC(=O)[C@H](CCCNC(=N)N)NC(=O)[C@@H](N)CCCNC(=N)N)CSCc2ccc(cc2)-c2ccc(cc2)CSC[C@@H](C(=O)N[C@@H](CC(C)C)C(=O)N[C@@H](CC(N)=O)C(=O)N[C@@H](CC(C)C)C(=O)N[C@@H](Cc2c[nH]c3ccccc23)C(N)=O)NC(=O)[C@H](CCC(=O)O)NC(=O)[C@H](CCCNC(=N)N)NC(=O)CNC(=O)[C@H](CC(C)C)NC(=O)[C@H](CCC(=O)O)NC1=O` [RSM3] (H-RRRRRRRRRRCMELGRECLNLW-NH2; linker 11-18 via Biphenyl(4,4'-CH2)2; N-terminus assumed), the “EdU signal relative to PBS control group” value in the data set on PCa cells is on record as about 35.0%. Moreover, in the data set with DU145 cells, the “IC50 in DU145, RSM3 vs STM2457” value is reported as 33.6 ± 1.5. For the same molecule, in the data set with ASPC-1 xenograft tumors, the “tumor weight, lighter than PBS- and R9-treated controls” value was about 50%. Besides, on METTL3, the METTL3 half-life result is on record as “dramatically reduced half-life” and the “METTL3 (and METTL14) protein levels by WB” value is recorded as “reduced”. The “cells arrested in sub-G1 phase, PC3” value in the data set with PC3 cells [1] is reported as about 29.2%. Besides, in the data set with PC3 cells [2], the “IC50 in PC3, RSM3 vs STM2457” value was found to be 26.5 ± 1.2. Further, on METTL3/METTL14 complex, the “reduction of METTL3-METTL14 interaction” value is on record as “fifty”. Further, in the data set on PC3 xenograft tumor, the “decrease of Ki67 in tumor (IHC)” value is about 65%, the “increase of caspase-3 expression in tumor (IHC)” value is about 1.8 fold, the “reduction in METTL3 expression in tumor (IHC)” value is listed as about 50% and the “reduction in m6A levels in tumor (IHC)” value is given as about 50%. Further, in the data set with PC3 xenograft tumor, the “average tumor mass relative to PBS group” value is listed as about 37%. For the same molecule, in the data set with PC3 xenograft tumor (setting [5]), the “tumor growth compared to R9 or PBS control groups” value is given as “significant suppression of tumor growth” and the “tumor volume, fold smaller than controls” value is 2∼3 fold. For the same molecule, in the data set on PC3 cells [3], the “late-stage share of total apoptotic PC3 cells” value is reported as about 90% and the “proportion of apoptotic cells, fold higher than RM3” value is “approximately 2 fold”. Besides, the “cells that entered apoptosis, PC3” value in the data set on PC3 cells [3] (PBS 4%) is given as about 60%. Also, in the data set on PC3 or DU145, the “fold reduction in colony formation” value is about 20 fold. Also, the “m6A modification level relative to R9 and PBS treatment groups” value with m6A modification was about 20%. In data set [4], this molecule came in with a fraction remaining at 6 h, 200 µM of about 41.8%. Moreover, the “cells that entered apoptosis, DU145” value in the data set on DU145 is on record as about 30%.
For the molecule STM2457 [reference compound], the “IC50 in DU145, RSM3 vs STM2457” value with DU145 cells amounted to 149.3 ± 10.1. For the same molecule, the “METTL3 (and METTL14) protein levels by WB” value on METTL3 is on record as “no influence”. In the data set on PC3 cells [2], the “IC50 in PC3, RSM3 vs STM2457” value was found to be 95.5 ± 3.6. Besides, the “average tumor mass relative to PBS group” value in the data set with PC3 xenograft tumor came to 70%.
